Source: PMC7697635, “Dual RNase and β-lactamase Activity of a Single Enzyme Encoded in Archaea” (Life, 2020)

How the values were obtained:
[1] = system: T1, archaeal class C-like β-lactamase; assay: nitrocefin hydrolysis, absorbance at […] nm, Michaelis-Menten fit; format: biochemical, Methanosarcina sp.; conditions: room temperature; 4 µM enzyme; 0.05-1.5 mM nitrocefin
T1 construct: gene class C-like beta-lactamase

[2] = molecular target: T2, MetbaB (Methanosarcina β-lactamase class B) (Methanosarcina barkeri, UniProt A0A0E3SJT9); assay: inhibition of nitrocefin hydrolysis, absorbance at […] nm; format: biochemical; conditions: substrate nitrocefin; 1 µg/mL sulbactam; 30 min
T2 construct: gene MSBR3_0040
T2 sequence (A0A0E3SJT9 1-213 limits assumed): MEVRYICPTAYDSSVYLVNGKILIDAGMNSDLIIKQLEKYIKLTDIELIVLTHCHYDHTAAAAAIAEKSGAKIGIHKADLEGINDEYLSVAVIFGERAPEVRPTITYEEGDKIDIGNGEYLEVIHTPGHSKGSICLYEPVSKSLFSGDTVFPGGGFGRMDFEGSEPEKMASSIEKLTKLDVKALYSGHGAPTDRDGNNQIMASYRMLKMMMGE

SMILES	Km [1]	inhibition at 1 μg/mL [2]
O=C(Cc1cccs1)N[C@@H]1C(=O)N2C(C(=O)O)=C(/C=C/c3ccc([N+](=O)[O-])cc3[N+](=O)[O-])CS[C@H]12 [nitrocefin]	584 µM	–
CC1(C)[C@H](C(=O)O)N2C(=O)C[C@H]2S1(=O)=O [sulbactam]	–	in the presence of sulbactam, no degradation of the nitrocefin β-lactam could be detected
